Reference: patent publication EP0048614B1, “1-N-acylated and 1-N-alkylated derivatives of 4-0-substituted -2-deoxystreptamine aminoglycosides” (ELI LILLY AND COMPANY, priority 1980, dated 1982)
Converted amounts (≈) assume the structure as drawn. “And” between values parts separate entries of the source, which are not always exact repeats. Identical values can stand only once. Like-named read-outs stand apart in the source and are kept apart here.

Experiments:
[1] = test system: B. subtilis X12; experiment: Bioautography of thin layer chromatography plate; assay type: cell-based; conditions: TLC plate of the reaction mixture against B. subtilis X12
Procedure: Apramycin (54 mg, 0.1 mmol) was dissolved in water (1 ml). Zinc acetate dihydrate (100 mg, 0.4 mmol) was added to this solution and the mixture was briefly sonicated to disperse crystals of zinc acetate. The ' mixture was diluted with dimethylformamide (5 ml), 1-iodo-n-butane (0.115 ml), 1 mmol) was added and this reaction mixture was stirred at room temperature for 4 days.

[2] = test system: Bordetella bronchiseptica 16; experiment: MIC, standard agar dilution test; assay type: cell-based; conditions: Bordetella bronchiseptica 16; agar dilution; read-out: Minimum Inhibitory Concentration
Description: (§1) The antibacterial activity of the deprotected compounds of this invention is illustrated by the following in vitro and in vivo test data obtained with representative compounds. In Table I, the minimum inhibitory concentration (MIC) for representative compounds against a wide range of gram-positive and gram-negative bacteria is presented. The MIC values were obtained by the standard agar dilution test.

[3] = test system: Citrobacter freundii CF17; experiment: MIC, standard agar dilution test; assay type: cell-based; conditions: Citrobacter freundii CF17; agar dilution; read-out: Minimum Inhibitory Concentration
Description: as §1

[4] = test system: Enterobacter aerogenes C32; experiment: MIC, standard agar dilution test; assay type: cell-based; conditions: Klebsiella aerogenes; Enterobacter aerogenes C32; agar dilution; read-out: Minimum Inhibitory Concentration
Description: as §1

[5] = test system: Enterobacter aerogenes EB17; experiment: MIC, standard agar dilution test; assay type: cell-based; conditions: Klebsiella aerogenes; Enterobacter aerogenes EB17; agar dilution; read-out: Minimum Inhibitory Concentration
Description: as §1

[6] = test system: Enterobacter aerogenes X68; experiment: MIC, standard agar dilution test; assay type: cell-based
Description: as §1

[7] = test system: Enterobacter cloacae 265A; experiment: MIC, standard agar dilution test; assay type: cell-based; conditions: Enterobacter cloacae 265A; agar dilution; read-out: Minimum Inhibitory Concentration
Description: as §1

[8] = test system: Enterobacter cloacae EB5; experiment: MIC, standard agar dilution test; assay type: cell-based; conditions: Enterobacter cloacae EB5; agar dilution; read-out: Minimum Inhibitory Concentration
Description: as §1

[9] = test system: Escherichia coli EC14; experiment: MIC, standard agar dilution test; assay type: cell-based; conditions: Escherichia coli EC14; agar dilution; read-out: Minimum Inhibitory Concentration
Description: as §1

[10] = test system: Escherichia coli N10; experiment: MIC, standard agar dilution test; assay type: cell-based; conditions: agar dilution
Description: as §1

[11] = test system: Escherichia coli TEM; experiment: MIC, standard agar dilution test; assay type: cell-based; conditions: read-out: Minimum Inhibitory Concentration
Description: as §1

[12] = test system: Hemophilus influenzae 76; experiment: MIC, standard agar dilution test; assay type: cell-based
Description: as §1

[13] = test system: Hemophilus influenzae C.L.; experiment: MIC, standard agar dilution test; assay type: cell-based; conditions: Hemophilus influenzae C.L.
Description: as §1

[14] = test system: Klebsiella pneumoniae KAE; experiment: MIC, standard agar dilution test; assay type: cell-based; conditions: Klebsiella pneumoniae KAE; agar dilution; read-out: Minimum Inhibitory Concentration
Description: as §1

[15] = test system: Klebsiella pneumoniae X26; experiment: MIC, standard agar dilution test; assay type: cell-based; conditions: Klebsiella pneumoniae X26; agar dilution; read-out: Minimum Inhibitory Concentration
Description: as §1

[16] = test system: Proteus inconstans PR33; experiment: MIC, standard agar dilution test; assay type: cell-based; conditions: Providencia alcalifaciens; Proteus inconstans PR33; agar dilution; read-out: Minimum Inhibitory Concentration
Description: as §1

[17] = test system: Proteus morganii PR15; experiment: MIC, standard agar dilution test; assay type: cell-based; conditions: Morganella morganii; Proteus morganii PR15; agar dilution; read-out: Minimum Inhibitory Concentration
Description: as §1

[18] = test system: Proteus rettgeri C24; experiment: MIC, standard agar dilution test; assay type: cell-based; conditions: Providencia rettgeri; Proteus rettgeri C24; agar dilution; read-out: Minimum Inhibitory Concentration
Description: as §1

[19] = test system: Proteus rettgeri PR7; experiment: MIC, standard agar dilution test; assay type: cell-based
Description: as §1

[20] = test system: Pseudomonas aeruginosa Ps18; experiment: MIC, standard agar dilution test; assay type: cell-based; conditions: Pseudomonas aeruginosa Ps18; agar dilution; read-out: Minimum Inhibitory Concentration
Description: as §1

[21] = test system: Pseudomonas aeruginosa X239; experiment: MIC, standard agar dilution test; assay type: cell-based; conditions: Pseudomonas aeruginosa X239; agar dilution; read-out: Minimum Inhibitory Concentration
Description: as §1

[22] = test system: Pseudomonas aeruginosa X528; experiment: MIC, standard agar dilution test; assay type: cell-based; conditions: Pseudomonas aeruginosa X528; agar dilution; read-out: Minimum Inhibitory Concentration
Description: as §1

[23] = test system: Salmonella heidelberg X514; experiment: MIC, standard agar dilution test; assay type: cell-based; conditions: Salmonella enterica; Salmonella heidelberg X514; agar dilution; read-out: Minimum Inhibitory Concentration
Description: as §1

[24] = test system: Salmonella typhimurium 1335; experiment: MIC, standard agar dilution test; assay type: cell-based; conditions: Salmonella enterica; Salmonella typhimurium 1335; agar dilution; read-out: Minimum Inhibitory Concentration
Description: as §1

[25] = test system: Serratia marcescens SE3; experiment: MIC, standard agar dilution test; assay type: cell-based; conditions: Serratia marcescens SE3; agar dilution; read-out: Minimum Inhibitory Concentration
Description: as §1

[26] = test system: Serratia marcescens X99; experiment: MIC, standard agar dilution test; assay type: cell-based
Description: as §1

[27] = test system: Shigella sonnei N9; experiment: MIC, standard agar dilution test; assay type: cell-based; conditions: read-out: Minimum Inhibitory Concentration
Description: as §1

[28] = test system: Staphylococcus aureus S13E; experiment: MIC, standard agar dilution test; assay type: cell-based; conditions: read-out: Minimum Inhibitory Concentration
Description: as §1

[29] = test system: Staphylococcus aureus V41; experiment: MIC, standard agar dilution test; assay type: cell-based; conditions: Staphylococcus aureus V41; agar dilution; read-out: Minimum Inhibitory Concentration
Description: as §1

[30] = test system: Staphylococcus aureus X1.1; experiment: MIC, standard agar dilution test; assay type: cell-based; conditions: Staphylococcus aureus X1.1, agar dilution
Description: as §1

[31] = test system: Staphylococcus aureus X400; experiment: MIC, standard agar dilution test; assay type: cell-based
Description: as §1

[32] = test system: Staphylococcus epidermidis EPI1; experiment: MIC, standard agar dilution test; assay type: cell-based; conditions: Staphylococcus epidermidis EPI1; agar dilution; read-out: Minimum Inhibitory Concentration
Description: as §1

[33] = test system: Staphylococcus epidermidis EPI2; experiment: MIC, standard agar dilution test; assay type: cell-based; conditions: Staphylococcus epidermidis EPI2; agar dilution; read-out: Minimum Inhibitory Concentration
Description: as §1

[34] = test system: Streptococcus group D 9960; experiment: MIC, standard agar dilution test; assay type: cell-based; conditions: D9960; Streptococcus group D 9960; agar dilution; read-out: Minimum Inhibitory Concentration
Description: as §1

[35] = test system: Streptococcus group D X66; experiment: MIC, standard agar dilution test; assay type: cell-based; conditions: DX66; Streptococcus group D X66; agar dilution; read-out: Minimum Inhibitory Concentration
Description: as §1

[36] = test system: Streptococcus pneumoniae Park I; experiment: MIC, standard agar dilution test; assay type: cell-based; conditions: Streptococcus pneumoniae Park I; agar dilution; read-out: Minimum Inhibitory Concentration
Description: as §1

[37] = test system: Streptococcus pyogenes C203; experiment: MIC, standard agar dilution test; assay type: cell-based; conditions: Streptococcus pyogenes C203; agar dilution; read-out: Minimum Inhibitory Concentration
Description: as §1

[38] = test system: Staphylococcus aureus 3055; experiment: Subcutaneous therapy of experimental bacterial infection in mice (ED50); assay type: in vivo; conditions: Staphylococcus aureus, 3055, sc
Procedure: Table II illustrates the effective dose (ED50, the effective dose to protect 50 percent of the test animals) for representative compounds of this invention against an experimental bacterial infection in mice.
The ED50 values were determined as described by W. E. Wick et al., Journal of Bacteriology, 81 [No. 2], 233-235 (1961).

[39] = test system: Escherichia coli X563; experiment: Standard disc-plate method, zone of inhibition against apramycin-resistant strain; assay type: cell-based; conditions: 15 mcg/disc; apramycin-resistant E. coli X563; one value for each of two test runs per compound; listed as 2
Description: Table III, shown below, illustrates the in vitro activity of 1-N-(S-y-amino-a-hydroxybutyryl)apramycin, 1-N-(RS-y-amino-a-hydroxybutyryl)apramycin, and 1-N-(S-y-amino-a-hydroxybutyryl)nebramine against an apramycin resistant strain of E. coli. The results below were obtained using the standard disc-plate method. The numerical values are the diameters in millimeters of the zones of inhibition observed against this bacterium. Compounds substituted with the y-amino-a-hydroxybutyryl and analogous side chains are useful in treating infections caused by apramycin resistant bacteria such as the one above.
The test organism (E. coli X563) used in the experiments summarized in Table III is resistant to apramycin due to a 3-N-acetyltransferase which enzymatically inactivates apramycin.

SMILES: C=CCNC1CC(N)C(OC2OC3C(CC2N)OC(OC2OC(CO)C(N)C(O)C2O)C(NC)C3O)C(O)C1O (stereo not drawn) [1-N-allylapramycin]
- zone of inhibition (bioautography) [1]: good zone of inhibition

SMILES: NCC[C@H](O)C(=O)N[C@@H]1C[C@H](N)[C@@H](O[C@H]2O[C@H](CN)[C@@H](O)C[C@H]2N)[C@H](O)[C@H]1O [Test Compound 5, 1-N-(S-γ-amino-α-hydroxybutyryl)nebramine]
- MIC [2]: 32 µg/mL (≈ 78.5 µM)
- MIC [3]: 16 µg/mL (≈ 39.3 µM)
- MIC [4]: 8 µg/mL (≈ 19.6 µM)
- MIC [5]: 8 µg/mL (≈ 19.6 µM)
- MIC ([6]; Klebsiella aerogenes, Enterobacter aerogenes X68, read-out: Minimum Inhibitory Concentration): 8 µg/mL (≈ 19.6 µM)
- MIC [7]: 32 µg/mL (≈ 78.5 µM)
- MIC [8]: 16 µg/mL (≈ 39.3 µM)
- MIC [9]: 16 µg/mL (≈ 39.3 µM)
- MIC ([10]; Escherichia coli, N10, Escherichia coli N10, read-out: Minimum Inhibitory Concentration): 8 µg/mL (≈ 19.6 µM)
- MIC [11]: 2 µg/mL (≈ 4.91 µM)
- MIC ([12]; Haemophilus influenzae, Hemophilus influenzae 76, read-out: Minimum Inhibitory Concentration): 16 µg/mL (≈ 39.3 µM)
- MIC ([13]; Haemophilus influenzae, read-out: Minimum Inhibitory Concentration): 16 µg/mL (≈ 39.3 µM)
- MIC [14]: 8 µg/mL (≈ 19.6 µM)
- MIC [15]: 4 µg/mL (≈ 9.82 µM)
- MIC [16]: 8 µg/mL (≈ 19.6 µM)
- MIC [17]: 32 µg/mL (≈ 78.5 µM)
- MIC [18]: 8 µg/mL (≈ 19.6 µM)
- MIC ([19]; Providencia rettgeri, Proteus rettgeri PR7, read-out: Minimum Inhibitory Concentration): 8 µg/mL (≈ 19.6 µM)
- MIC [20]: 32 µg/mL (≈ 78.5 µM)
- MIC [21]: 32 µg/mL (≈ 78.5 µM)
- MIC [22]: 64 µg/mL (≈ 157 µM)
- MIC [23]: 16 µg/mL (≈ 39.3 µM)
- MIC [24]: 8 µg/mL (≈ 19.6 µM)
- MIC [25]: 16 µg/mL (≈ 39.3 µM)
- MIC ([26]; Serratia marcescens X99, read-out: Minimum Inhibitory Concentration): 8 µg/mL (≈ 19.6 µM)
- MIC [27]: 16 µg/mL (≈ 39.3 µM)
- MIC [28]: 8 µg/mL (≈ 19.6 µM)
- MIC [29]: 8 µg/mL (≈ 19.6 µM)
- MIC ([30]; read-out: Minimum Inhibitory Concentration): 8 µg/mL (≈ 19.6 µM)
- MIC ([31]; Staphylococcus aureus X400, read-out: Minimum Inhibitory Concentration): 64 µg/mL (≈ 157 µM)
- MIC [32]: 8 µg/mL (≈ 19.6 µM)
- MIC [33]: 4 µg/mL (≈ 9.82 µM)
- MIC [34]: > 128 µg/mL
- MIC [35]: > 128 µg/mL
- MIC [36]: 16 µg/mL (≈ 39.3 µM)
- MIC [37]: 16 µg/mL (≈ 39.3 µM)

SMILES: CCCCNC1CC(N)C(OC2OC3C(CC2N)OC(OC2OC(CO)C(N)C(O)C2O)C(NC)C3O)C(O)C1O (stereo not drawn) [1-N-(n-butyl)apramycin]
- zone of inhibition (bioautography) [1]: good zone of inhibition

SMILES: CNC1C(OC2OC(CO)C(N)C(O)C2O)OC2CC(N)C(OC3C(N)CC(NC(=O)C(O)CCN)C(O)C3O)OC2C1O (stereo not drawn)
- ED50 ([38]; read-out: Effective Dose (ED50), mg/kg × 2 subcutaneous doses at 1 and 5 hours post infection, mice challenged with 331 LD50's): 7.1 mg/kg

SMILES: NCC[C@H](O)C(=O)N[C@@H]1C[C@H](N)[C@@H](O[C@H]2O[C@H](CN)[C@@H](O)C[C@H]2N)[C@H](O)[C@H]1O
- ED50 ([38]; mg/kg × 2 subcutaneous doses at 1 and 5 hours post infection, mice challenged with 1,794 LD50's, read-out: Effective Dose (ED50)): 8.75 mg/kg

SMILES: CCCCNC1CC(N)C(O)C(O)C1OC1OC2C(CC1N)OC(OC1OC(CO)C(N)C(O)C1O)C(NC)C2O (stereo not drawn) [3-N-(n-butyl)apramycin]
- zone of inhibition (bioautography) [1]: not

SMILES: CNC1C(OC2OC(CO)C(N)C(O)C2O)OC2CC(N)C(OC3C(N)CC(NC(=O)C(O)CCN)C(O)C3O)OC2C1O (stereo not drawn) [Test Compound 2, 1-N-(RS-γ-amino-α-hydroxybutyryl)apramycin]
- Minimum Inhibitory Concentration ([6]; Enterobacter aerogenes X68): 16 µg/mL
- Minimum Inhibitory Concentration ([10]; Escherichia coli N10): 16 µg/mL
- Minimum Inhibitory Concentration ([12]; Hemophilus influenzae 76): 32 µg/mL
- Minimum Inhibitory Concentration [13]: 32 µg/mL
- Minimum Inhibitory Concentration ([19]; Proteus rettgeri PR7): 4 µg/mL
- Minimum Inhibitory Concentration ([26]; Serratia marcescens X99): 16 µg/mL
- Minimum Inhibitory Concentration [30]: 8 µg/mL
- Minimum Inhibitory Concentration ([31]; Staphylococcus aureus X400): 64 µg/mL
- Zone of Inhibition (diameter in mm) [39]: 12.5 mm and 13.6 mm

SMILES: CNC1C(OC2OC(CO)C(N)C(O)C2O)OC2CC(N)C(OC3C(N)CC(NCc4ccccc4)C(O)C3O)OC2C1O (stereo not drawn) [1-N-benzylapramycin]
- zone of inhibition (bioautography) [1]: zone of inhibition
